The values that follow come from patent JP2014074001A, “抗精神病剤” (KONAN MEDICAL CO Ltd, priority 2012, dated 2014).

Experiment [1] has as its system fasting blood glucose [空腹時血糖値]. Description: Example 2: fasting blood glucose in high-fat-diet ICR mice, clozapine and β-glucan. To be noted: male ICR mice, 4 weeks, 16 h fast, tail vein, clozapine 5 mg/kg/day p.o. with or without β-glucan 5 v/v% in drinking water. Format: in vivo, mouse.
Experiment [2] has as its system fasting blood glucose [空腹時血糖値]. Nature of the experiment: Example 1: fasting blood glucose in high-fat-diet ICR mice, olanzapine and β-glucan. In kind it is in vivo, mouse. The following applies: male ICR mice, 4 weeks, 16 h fast, tail vein, olanzapine 3 mg/kg/day p.o. and/or β-glucan 5 v/v% in drinking water, mean ± SD, high-fat control 84.4±14.65, normal diet control 72.6±10.49.

As to `CN1CCN(C2=Nc3cc(Cl)ccc3Nc3ccccc32)CC1` [クロザピン], the fasting blood glucose in experiment [1] came to 124.0 ± 8.91 mg/dL.

For `Cc1cc2c(s1)Nc1ccccc1N=C2N1CCN(C)CC1` [オランザピン], in experiment [2], the “fasting blood glucose, mean” value was determined as 124.8 ± 16.44 mg/dL.
